Measurements: patent US20120190564A1, “IDENTIFICATION OF PROTEIN BINDING SITES” (priority 2000, published 2012)
Ends that are not written are not given here. * marks the point of attachment. code + = amino-terminal bromo-group; nBu = CCCC*

Tested on: anti-hTNF mAb 210
Experiment: Loop-loop 15-mer Matrix-scan of hTNF loop-peptides with mAb 210
Assay type: binding
Conditions: mAb 210 10 ug/ml
Text: FIG. 11: Partial listing of peptides synthesized for loop-loop 15-mer Matrix-scan (1. +AVRSSSRTPSDKPVZ (SEQ ID NO: 3); 2. +VRSSSRTPSDKPVAZ (SEQ ID NO: 4); 3. +RSSSRTPSDKPVAHZ (SEQ ID NO: 5); 4. +SSSRTPSDKPVAHVZ (SEQ ID NO: 6); 5. +SSRTPSDKPVAHVVZ (SEQ ID NO: 7); 145. +FAESGQVYFGIIALZ (SEQ ID NO: 8)). All overlapping 15-mer loop-peptides covering the linear sequence of human tumor necrosis factor (hTNF) were synthesized, i.e., 145 hTNF loop-peptides in total. Z is a Cys-butyl. The amino terminus of all peptides contain a bromo-group (+).
FIG. 12: Configuration of the loop-loop 15-mer Matrix-scan. Schematic representation of matrix-scan with two loop segments. On the polymer surface, a mixture of cys (mmt) and cys (trt) are coupled. After 1% TFA, the cys (mmt) is deprotected. Then, in each square, one peptide is coupled via its N-terminal Bromo-group (+). Thus, peptide-1 in square-1, peptide-2 in square-2, etc., until peptide-145 in square-145. Then, the cys(trt) is deprotected with 95% TFA. Then, in each square, 145 different peptides are spotted simultaneously. Thus, peptide-1 to 145 in square-1, peptide 1-145 in square-2, etc., to peptide-1 to peptide-145 in square-145. Some extra squares were used for controls (linear epitopes).
FIG. 13: Result of the loop-loop 15-mer Matrix-scan with anti-hTNF mAb 210 (10 ug/ml). The result obtained with all 145 squares is plotted. […] On top of these and other squares spots are labeled as well (spots represent first peptide coupled next to second loop peptide). Identified squares and spots: Sq-65: +FKGQGCPSTHVLLTZ (SEQ ID NO: 9); Sq-66: +KGQGCPSTHVLLTHZ (SEQ ID NO: 10); Sq-67: +GQGCPSTHVLLTHTZ (SEQ ID NO: 11); Sq-87: +SYQTKVNLLSAIKSZ (SEQ ID NO: 12); Sq-88: +YQTKVNLLSAIKSPZ (SEQ ID NO: 13); Sq-94: +LLSAIKSPCQRETPZ (SEQ ID NO: 14); Sq-95: +LSAIKSPCQRETPEZ (SEQ ID NO: 15); Sq-127: +LEKGDRLSAEINRPZ (SEQ ID NO: 16); Sq-128: +EKGDRLSAEINRPDZ (SEQ ID NO: 17); Peptide-65: +FKGQGCPSTHVLLTZ (SEQ ID NO: 18); Peptide-70: +CPSTHVLLTHTISRZ (SEQ ID NO: 19); Peptide-72: +STHVLLTHTISRIAZ (SEQ ID NO: 20); Peptide-77: +LTHTISRIAVSYQTZ (SEQ ID NO: 21); Peptide-94: +LLSAIKSPCQRETPZ (SEQ ID NO: 22); Peptide-95: +LSAIKSPCQRETPEZ (SEQ ID NO: 23); Peptide-99: +KSPCQRETPEGAEAZ (SEQ ID NO: 24); Peptide-126: +QLEKGDRLSAEINRZ (SEQ ID NO: 25); Peptide-129: +KGDRLSAEINRPDYZ (SEQ ID NO: 26). The y-axis is in arbitrary units.
FIG. 14: Result of the loop-loop 15-mer Matrix-scan with mAb 210 (10 ug/m) with details of squares 65 and 127. Combination of loop-peptide 65 with loop-peptides 94, 95, combinations of loop-peptide 65 with 126-127, combinations of loop-peptide 127 with loop-peptides 65-77 and combinations of loop-peptide 127 with loop-peptides 94-96 are labeled. The y-axis is in arbitrary units.
The monoclonal antibody mAb-210 raised against hTNF was tested on linear and loop peptides (mAb-210 was bought from R&D Systems, MAB210, clone 1825.12, through ITK Diagnostics Uithoorn, The Netherlands). Firstly, it was tested in Pepscan on all overlapping linear 12-mers covering hTNF. […] Secondly, it was tested in Pepscan matrix-scan on double 15-mer loop-loop peptides (as described in FIGS. 3 and 4 and explained through FIGS. 11-12). Two loop-regions were labeled: peptide sequence GQGCPSTHVLLT (SEQ ID NO: 65) (squares 65 to 67) and SAIKSPCQRE (SEQ ID NO: 28) (squares 92 to 96) (FIGS. 13, 14). In addition in various squares loop peptide spots were identified corresponding to sequence GQGCPSTHVLLT (SEQ ID NO: 65) (spots 65-67); SAIKSPCQRE (SEQ ID NO: 28) (spots 92-96) and KGDRLSAEINR (SEQ ID NO: 29) (spots 126-129) (FIG. 14). These three regions, illustrated in FIG. 15 on the three-dimensional model of hTNF, are located on one side of the hTNF molecule and form one large discontinuous epitope region.

| Substance | labeling of spots (first peptide coupled next to second loop peptide) | labeling of squares (firstly coupled loop-peptides) |
| --- | --- | --- |
| +CPSTHVLLTHTISRZ ({code +}-CPSTHVLLTHTISRC(nBu)) [Peptide-70, 15-mer hTNF loop-peptide] | Identified | – |
| +EKGDRLSAEINRPDZ ({code +}-EKGDRLSAEINRPDX; not fully specified (residue 15); printed as +EKGDRLSAEINRPDZ; also: N- and C-terminal linker/cyclisation residues) [Sq-128, 15-mer hTNF loop-peptide] | – | Identified |
| +FKGQGCPSTHVLLTZ ({code +}-FKGQGCPSTHVLLTC(nBu)) [Peptide-65, 15-mer hTNF loop-peptide] | Identified | Identified |
| +GQGCPSTHVLLTHTZ ({code +}-GQGCPSTHVLLTHTX; not fully specified (residue 15); printed as +GQGCPSTHVLLTHTZ; also: N- and C-terminal linker/cyclisation residues) [Sq-67, 15-mer hTNF loop-peptide] | – | clearly labeled |
| +KGDRLSAEINRPDYZ ({code +}-KGDRLSAEINRPDYC(nBu)) [Peptide-129, 15-mer hTNF loop-peptide] | Identified | – |
| +KGQGCPSTHVLLTHZ ({code +}-KGQGCPSTHVLLTHX; not fully specified (residue 15); printed as +KGQGCPSTHVLLTHZ; also: N- and C-terminal linker/cyclisation residues) [Sq-66, 15-mer hTNF loop-peptide] | – | clearly labeled |
| +KSPCQRETPEGAEAZ ({code +}-KSPCQRETPEGAEAX; not fully specified (residue 15); printed as +KSPCQRETPEGAEAZ; also: N- and C-terminal linker/cyclisation residues) [Peptide-99, 15-mer hTNF loop-peptide] | Identified | – |
| +LEKGDRLSAEINRPZ ({code +}-LEKGDRLSAEINRPX; not fully specified (residue 15); printed as +LEKGDRLSAEINRPZ; also: N- and C-terminal linker/cyclisation residues) [Sq-127, 15-mer hTNF loop-peptide] | – | Identified |
| +LLSAIKSPCQRETPZ ({code +}-LLSAIKSPCQRETPC(nBu)) [Peptide-94, 15-mer hTNF loop-peptide] | Identified | Identified |
| +LSAIKSPCQRETPEZ ({code +}-LSAIKSPCQRETPEC(nBu)) [Peptide-95, 15-mer hTNF loop-peptide] | Identified | Identified |
| +LTHTISRIAVSYQTZ ({code +}-LTHTISRIAVSYQTX; not fully specified (residue 15); printed as +LTHTISRIAVSYQTZ; also: N- and C-terminal linker/cyclisation residues) [Peptide-77, 15-mer hTNF loop-peptide] | Identified | – |
| +QLEKGDRLSAEINRZ ({code +}-QLEKGDRLSAEINRC(nBu)) [Peptide-126, 15-mer hTNF loop-peptide] | Identified | – |
| +STHVLLTHTISRIAZ ({code +}-STHVLLTHTISRIAC(nBu)) [Peptide-72, 15-mer hTNF loop-peptide] | Identified | – |
| +SYQTKVNLLSAIKSZ ({code +}-SYQTKVNLLSAIKSX; not fully specified (residue 15); printed as +SYQTKVNLLSAIKSZ; also: N- and C-terminal linker/cyclisation residues) [Sq-87, 15-mer hTNF loop-peptide] | – | Identified |
| +YQTKVNLLSAIKSPZ ({code +}-YQTKVNLLSAIKSPX; not fully specified (residue 15); printed as +YQTKVNLLSAIKSPZ; also: N- and C-terminal linker/cyclisation residues) [Sq-88, 15-mer hTNF loop-peptide] | – | Identified |
| GQGCPSTHVLLT (Human) | identified | labeled |
| GQGCPSTHVLLTHTIS (Human) | identified | – |
| KGDRLSAEINR (Human) | identified | – |
| SAIKSPCQRE (Human) | identified | labeled |
